# Where a SMILES comes first, the peptide text is derived from it. The star is where a group is joined. Cbz = O=C(OCc1ccccc1)*; CH2F = FC*
# Legend:
# [1] = tested on: nerve cells differentiated from iPS cells; assay: Prediction model MDL score of nerve cell images versus Z-VAD-FMK concentration; assay type: cell-based, human; settings: FIG. 14, higher score = greater probability that the cell will survive
# Excerpt: Activated caspase-3 in apoptotic nerve cells was detected by using a fluorogenic substrate consisting of a four-amino acid peptide DEVD (SEQ ID NO: 1) bound to a nucleic acid binding dye (product name “CellEvent Caspase-3/7 Green Detection Reagent”, Thermo Fisher Scientific Inc.). Since the DEVD peptides inhibit the binding of fluorescent dyes to DNA, the above-described fluorogenic substrate is essentially non-fluorescent. However, when activated caspase-3 in dead cells cleaves the DEVD peptide, a fluorescent dye binds to the DNA to cause fluorescence, which can be detected using a standard FITC green filter set of a standard time lapse imaging system (product name “Incucyte ZOOM”, Essen Bioscience, Ltd.) (exposure time 400 ms). Images were photographed over time every 6 hours after drug administration.
# The original size of the single-well image captured by using the time lapse imaging system (product name “Incucyte ZOOM”, Essen Bioscience, Ltd.) was 1,392×1,038 pixels, and four images were cut out from this image and extracted as the cropped image IMGC. The original image was divided evenly into four regions, and square images were taken out from the center of each region. The size of the trimmed cropped image IMGC was selected from 128×128, 256×256, 512×512, 768×768, and 1,020×1,020 in width×height. […]
# [2] = tested on: nerve cells differentiated from iPS cells; assay: Single cell analysis (single cell RNA sequence, UMAP clustering) of nerve cells with Z-VAD-FMK; assay type: cell-based, human
# Experimental: FIG. 15 is a view showing the schematics of a proposed method. As illustrated in the drawing, Z-VAD-FMK is added to nerve cells and changes in gene expression of individual cells are observed before cell death occurs (before caspase-3 activation occurs) (single cell RNA sequence=WHAT in the drawing). At the same time, the images are acquired, and the CNN-based prediction model MDL is used to check where the changes are occurring (WHERE in the drawing). In this manner, a method for identifying the molecules, where and what is occurring before cell death, is proposed.
# Single cell analysis was performed using the above-described proposed method. FIG. 16 is a view illustrating an example of clustering results of cells. While changing the concentration of Z-VAD-FMK added to the nerve cells to 0 [μM], 0.2 [μM], and 25 [μM], the cell population was separated into a total of 15 types of clusters ranging from 0 to 14 by using a visualization method (one type of dimensional compression method) which is called UMAP (uMAP).
# FIG. 22 is a view illustrating a relationship between the Z-VAD-FMK concentration and the cluster size. […] As a result, the cluster 12 was identified as a cluster that satisfies the conditions.
smiles,measurement,setting,value
COC(=O)C[C@H](NC(=O)[C@H](C)NC(=O)[C@@H](NC(=O)OCc1ccccc1)C(C)C)C(=O)CF [Z-VAD-FMK] (Cbz-Val-Ala-Asp(OMe)-CH2F),score of the prediction model MDL (probabilistic value related to the life or death of cells),[1],"the higher the Z-VAD-FMK concentration, the higher the score"
same,effect of Z-VAD-FMK concentration on cluster shapes of UMAP expanded cell populations,"[2]; 0, 0.2 and 25 μM Z-VAD-FMK, 15 clusters (0 to 14), FIGS. 16 to 21",no effect on most of the cell populations
same,"cluster size (number of cells in cluster 12, caspase-3 activated)","[2]; cluster 12, with addition of Z-VAD-FMK, FIG. 22",the number of cells in its own cluster decreased with the addition of Z-VAD-FMK

# Reference: patent US12462378B2, “Information processing device, screening device, information processing method, screening method, and program” (Kyoto University, priority 2019, dated 2025)
